Test results published in patent US7259185B2 (priority 2005, dated 2007).
Values joined by “and” are separate entries in the source; they are usually repeats but may differ in a detail not shown here. Equal values may be shown once. “Also recorded” adds a separate entry of the source. Read-outs that look alike come from different tables or passages of the source.

Experiments:
[1] = in vivo; cited from earlier work
[2] = type: physicochemical; conditions: 6 mg dose, no pepsin, after 24 hours
Description: A 250 mL volumetric flask was used to simulate the capacity of stomach gastric volume, and a pH 1.5 HCl buffer (0.8% NaCl, 0.04% CaCl2) was used for the simulated gastric fluid (SGF).

[3] = buffer at pH 7, glycerin increased to 35% by volume
[4] = for Color change: 50° C.
[5] = pH 9 carbonate buffer, after approximately 1 week at 50° C.
[6] = 2 mg/mL in pH 7 phosphate buffer (100 mM), RT
[7] = pH buffer of pH between 8 and 9, room temperature
Source text: In a more preferred embodiment, pH of about 8 to 9, is provided. For example, a buffer close to a pH of about 8.3 can be used.

In the case of CC(=O)CC(c1ccccc1)c1c(O)c2ccccc2oc1=O (racemic) [warfarin], the “apparent Vd” value [1] is listed as 0.13 L/kg.
For CC(=O)CC(c1ccccc1)c1c([O-])c2ccccc2oc1=O.[Na+] (stereo not shown) [warfarin sodium, 4-hydroxy-3-(3-oxo-1-phenylbutyl)-2H-1-benzopyran-2one sodium salt], the “precipitation of warfarin sodium in SGF” value [2] was “precipitate out of solution”, the precipitation of warfarin [3] was “prevents precipitation” and the Color change ([4]; 1:1 mixture with ethanol, pH 8 buffer) was “No color change”. The Color change ([4]; 1:1 mixture with glycerin, pH 8 buffer) was “No color change”, the “% degradation of warfarin sodium” value ([4]; Phosphate buffer pH 8 alone, 1 month at 50° C.) was 1.4% and the Color change ([4]; Phosphate buffer pH 8 alone) was “Light yellow”. The Color change ([4]; pH 8 buffer with Liquid sugar (50% v/v), sodium salt) was “slight yellow color change”, the “% degradation of warfarin sodium” value ([4]; pH 8 buffer with Liquid sugar (50% v/v), after 312 hr at 50° C.) was 2.4 (after 312 hr) % and the Color change ([4]; pH 8 buffer with Mannitol (5% w/v), sodium salt) was “slight yellow color change; also recorded: Light yellow”. The “% degradation of warfarin sodium” value ([4]; pH 8 buffer with Mannitol (5% w/v), after 384 hr at 50° C.) was 1.9 (after 384 hr) %, the “% degradation of warfarin sodium” value ([4]; pH 8 buffer with Saccharin (0.5% w/v), 1 month at 50° C.) was 3.3% and the Color change ([4]; pH 8 buffer with Saccharin (0.5% w/v), sodium salt) was “slight yellow color change; also recorded: Light yellow”. For the same compound, the “% degradation of warfarin sodium” value ([4]; pH 8 buffer with Sorbitol (50% v/v), 1 month at 50° C.) was 2.9%, the Color change ([4]; pH 8 buffer with Sorbitol (50% v/v), sodium salt) was “slight yellow color change; also recorded: Light yellow” and the “% degradation of warfarin sodium” value ([4]; pH 8 buffer with TWEEN 80 (0.5% v/v), 1 month at 50° C.) was 5.1%. For the same compound, the Color change [5] was “slight yellowing”, the Warfarin concentration ([6]; time 0.017 hr) was 1.846 mg/mL and the Warfarin concentration ([6]; time 0.083 hr) was 1.819 mg/mL. For the same compound, the Warfarin concentration ([6]; time 0.167 hr) was 1.796 mg/mL, the Warfarin concentration ([6]; time 0.333 hr) was 1.847 mg/mL and the Warfarin concentration ([6]; time 0.5 hr) was 1.844 mg/mL. For the same compound, the Warfarin concentration ([6]; time 1 hr) was 1.8765 mg/mL, the Warfarin concentration ([6]; time 3 hr) was 1.858 mg/mL and the Warfarin concentration ([6]; time 5 hr) was 1.804 mg/mL. The Warfarin concentration ([6]; time 10 hr) was 1.822 mg/mL, the Warfarin concentration ([6]; time 13.5 hr) was 2.0099 mg/mL and the Warfarin concentration ([6]; time 17.25 hr) was 1.97 mg/mL. For the same compound, the Warfarin concentration ([6]; time 48 hr) was 1.113 mg/mL, the Warfarin concentration ([6]; time 192 hr, sodium salt) was 0.357 mg/mL and 0.362 mg/mL and the precipitation [7] was “free of precipitation for at least one month”.
